Structures can show the parent of a compound that is named as a salt.
Each molecule was assayed on TNF production or secretion in mouse peritoneal macrophages (assay: Inhibitory effect on TNF production or secretion in mouse peritoneal macrophages (30 μM)). Conditions: Mus musculus; 30 μM compound; LPS 10 μg/ml, 18 hours; TNF by L929 bioassay.
Format: cell-based, mouse (BALB/c)
Description: Inhibitory effect on TNF production or secretion in mouse peritoneal macrophages (In case drug concentration is 30 μM)
BALB/c mice (5 weeks old, female, Charles River Japan) were intraperitoneally injected with 1 ml of 3% thioglycollate broth. After 4 days, the mice were sacrificed. Peritoneal exudated cells (PECs) were collected from the peritoneal cavity by washing with minimum essential medium (hereinafter abbreviated as MEM, manufactured by Handai Biseibutubyo Kenkyukai, Osaka, Japan) containing 5 U/ml heparin and 1% fetal bovine serum (FBS, manufactured by GIBCO Laboratories Inc.). PECs were washed three times with MEM, suspended with MEM containing 10% FBS. After the viable cells were counted by exclusion of trypan blue dye, the suspension was adjusted at the final concentration of 2×10^6 cells/ml with MEM containing 10% FBS and seeded into a 96-well microplate (Costar, Cambridge, Mass., USA) at 2×10^5 cells/100 μl/well. The PECs were incubated for an hour at 37° C. in a humidified 5% CO2 incubator, and were washed twice with MEM warmed at 37° C. to remove non-adherent cells. Residual adherent cells were used as peritoneal macrophages. After the washing above, 50 μl each/well of MEM containing 10% FBS was added to each well and provided for use in the following experiment.
The powdery compound of the present invention was dissolved in dimethylsulfoxide in a concentration of 30 mM. The solution was then diluted with MEM containing 10% FBS in the final concentration of 30 μM. In the peritoneal macrophages obtained above, 50 μl each of the dilution was added to each well to make the total volume 100 μl. Thereafter 100 μl each of lipopolysaccharide (hereinafter abbreviated as LPS, E. coli 0111B4, manufactured by DIFCO, USA) was added to each well in the final concentration of 10 μg/ml. After the cells were incubated at 37° C. for 18 hours in a humidified 5% CO2 incubator, 25 μl of the supernatant in each well was collected.
The TNF activity in the supernatant collected was determined by bioassay using TNF-sensitive mouse fibroblast cell line L929 cells. That is, 100 μl each of MEM containing 10% FBS was added to each well of a 96-well microplate; using the resulting mixture, 25 μl of the collected supernatant was diluted to 5-fold dilution to final concentrations (concentrations after the following addition of L929 cell suspension) of 10%, 2%, 0.4% and 0.08%.
L929 cells were then suspended (4×10^5 cells/ml) in MEM containing 10% FBS and 1 μg/ml actinomycin D (Sigma Co.) and 100 μl each of the suspension was added to each well of the above microplate at 4×10^4 cells/well and cultured at 37° C. in a humidified 50% CO2. The viable cells were counted by partial modification of the MTT method reported in Monosann et al., T., J. Immunol. Method, 65, 55-63, 1983. The modified MTT method comprises the following steps. One mg/ml of 3-(4,5-dimethylthiazol-2-yl)-2,5-diphenyltetrazolium bromide (hereinafter abbreviated as MTT, manufactured by Sigma Co.) was dissolved in MEM, and 50 μl each of the solution was added to each well of the microplate above. After incubating the microplate for further 6 hours, the supernatant was discarded and 100 μl of 0.004N HCl-isopropyl alcohol and then 10 μl of 0.01% sodium laurylsulfate aqueous solution was added to each well. After shaking the 96-well microplate for a few minutes, the absorbance in each well was measured with a microplate reader (Corona Co.) at an absorption wavelength of 550 nm. The absorbance correlated to the count of the viable L929 cells and represented the TNF activity in the supernatant. The TNF activity was determined in terms of unit (U)/ml from the calibration curve of absorbance for the TNF activity obtained using mouse recombinant TNF α (TNF-M, manufactured by Genzyme Co.) as a standard. The activity of inhibiting TNF production of each compound, was determined by the following equation.
Inhibition of TNF production or secretion (%)=(1-TNF activity in the […]
Work on `CC(=O)N1C2Cc3cc4c(cc3C1Cc1cc3c(cc12)OCO3)OCO4` [Example 1, 15-acetyl-5,6,12,13-tetrahydrocycloocta[1,2-f:5,6-f']bis[1,3]benzodioxol-5,12-imine] yielded an inhibition at 30 µM of 95%. `CCN1C2Cc3cc4c(cc3C1Cc1cc3c(cc12)OCO3)OCO4` [Example 2, 15-ethyl-5,6,12,13-tetrahydrocycloocta[1,2-f:5,6-f']bis[1,3]benzodioxol-5,12-imine hydrochloride] was tested, and the inhibition at 30 µM was 72%. Molecule `c1coc(CN2C3Cc4cc5c(cc4C2Cc2cc4c(cc23)OCO4)OCO5)c1` [Example 3, 15-furfuryl-5,6,12,13-tetrahydrocycloocta[1,2-f:5,6-f']bis[1,3]benzodioxol-5,12-imine hydrochloride] has an inhibition at 30 µM of -99%. In the case of `Fc1ccc(CCCN2C3Cc4cc5c(cc4C2Cc2cc4c(cc23)OCO4)OCO5)cc1` [Example 4, 15-[3-(4-fluorophenyl)propyl]-5,6,12,13-tetrahydrocycloocta[1,2-f:5,6-f']bis[1,3]benzodioxol-5,12-imine hydrochloride], the inhibition at 30 µM was 18%. In the case of `CC(=O)N1C2Cc3cc4c(cc3C1Cc1cc3c(cc12)OCCO3)OCCO4` [Example 5, 17-acetyl-6,7,14,15-tetrahydrocycloocta[1,2-g:5,6-g']bis[1,4]benzodioxan-6,14-imine], the inhibition at 30 µM was 64%. Molecule `c1c2c(cc3c1OCO3)C1Cc3cc4c(cc3C(C2)N1)OCO4` [Example 13, 5,6,12,13-tetrahydrocycloocta-[1,2-f:5,6-f']bis[1,3]benzodioxol-5,12-imine] has an inhibition at 30 µM of 78%. `c1c2c(cc3c1OCCO3)C1Cc3cc4c(cc3C(C2)N1)OCCO4` [Example 14] showed an inhibition at 30 µM of 63%. With `CCC(=O)N1C2Cc3cc4c(cc3C1Cc1cc3c(cc12)OCO3)OCO4` [Example 17, 5,6,12,13-tetrahydro-15-propionylcycloocta-[1,2-f:5,6-f']bis[1,3]benzodioxol-5,12-imine] the inhibition at 30 µM was 94%. `CCCC(=O)N1C2Cc3cc4c(cc3C1Cc1cc3c(cc12)OCO3)OCO4` [Example 18] was tested, and the inhibition at 30 µM was 86%. For `COCC(=O)N1C2Cc3cc4c(cc3C1Cc1cc3c(cc12)OCO3)OCO4` [Example 20], the inhibition at 30 µM was 92%. `CCOC(=O)C(=O)N1C2Cc3cc4c(cc3C1Cc1cc3c(cc12)OCO3)OCO4` [Example 21, 15-ethoxalyl-5,6,12,13-tetrahydrocycloocta[1,2-f:5,6-f']bis[1,3]benzodioxol-5,12-imine] gave an inhibition at 30 µM of 69%. With `CCOC(=O)CC(=O)N1C2Cc3cc4c(cc3C1Cc1cc3c(cc12)OCO3)OCO4` [Example 22, 15-(ethoxycarbonylacetyl)-5,6,12,13-tetrahydrocycloocta[1,2-f:5,6-g']bis[1,3]benzodioxol-5,12-imine] the inhibition at 30 µM was 77%. For `O=C(c1ccccc1)N1C2Cc3cc4c(cc3C1Cc1cc3c(cc12)OCO3)OCO4` [Example 23], the inhibition at 30 µM was 39%. Work on `CCOC(=O)N1C2Cc3cc4c(cc3C1Cc1cc3c(cc12)OCO3)OCO4` [Example 24] yielded an inhibition at 30 µM of 68%. `CCCCCOC(=O)N1C2Cc3cc4c(cc3C1Cc1cc3c(cc12)OCO3)OCO4` [Example 25] was tested, and the inhibition at 30 µM was 46%. Work on `O=C(Oc1ccccc1)N1C2Cc3cc4c(cc3C1Cc1cc3c(cc12)OCO3)OCO4` [Example 26] yielded an inhibition at 30 µM of 27%. `CN1C2Cc3cc4c(cc3C1Cc1cc3c(cc12)OCO3)OCO4` [Example 27] was tested, and the inhibition at 30 µM was 86%. `CC(C)CN1C2Cc3cc4c(cc3C1Cc1cc3c(cc12)OCO3)OCO4` [Example 31] was tested, and the inhibition at 30 µM was 36%. In the case of `C=CCN1C2Cc3cc4c(cc3C1Cc1cc3c(cc12)OCO3)OCO4` [Example 32], the inhibition at 30 µM was 12%. `C=CCCCN1C2Cc3cc4c(cc3C1Cc1cc3c(cc12)OCO3)OCO4` [Example 33] was tested, and the inhibition at 30 µM was -5%. `c1c2c(cc3c1OCO3)C1Cc3cc4c(cc3C(C2)N1CCN1CCCCC1)OCO4` [Example 34] was tested, and the inhibition at 30 µM was 56%. For `OCCN1C2Cc3cc4c(cc3C1Cc1cc3c(cc12)OCO3)OCO4` [Example 35], the inhibition at 30 µM was 65%. For `COC(=O)CCN1C2Cc3cc4c(cc3C1Cc1cc3c(cc12)OCO3)OCO4` [Example 36], the inhibition at 30 µM was -24%. For `CCOC(=O)CN1C2Cc3cc4c(cc3C1Cc1cc3c(cc12)OCO3)OCO4` [Example 37], the inhibition at 30 µM was 19%. `CCOC(=O)CCN1C2Cc3cc4c(cc3C1Cc1cc3c(cc12)OCO3)OCO4` [Example 38] was tested, and the inhibition at 30 µM was 6%. `N#CCCN1C2Cc3cc4c(cc3C1Cc1cc3c(cc12)OCO3)OCO4` [Example 39, 15-(2-cyanoethyl)-5,6,12,13-tetrahydrocycloocta[1,2-f:5,6-f']bis[1,3]benzodioxol-5,12-imine] was tested, and the inhibition at 30 µM was -48%. With `O=CN1C2Cc3cc4c(cc3C1Cc1cc3c(cc12)OCO3)OCO4` [Example 40, 15-formyl-5,6,12,13-tetrahydrocycloocta[1,2-f:5,6-f']bis[1,3]benzodioxol-5,12-imine] the inhibition at 30 µM was 84%. With `COCCN1C2Cc3cc4c(cc3C1Cc1cc3c(cc12)OCO3)OCO4` [Example 42, 5,6,12,13-tetrahydro-15-(2-methoxyethyl)cycloocta[1,2-f:5,6-f']bis[1,3]benzodioxol-5,12-imine] the inhibition at 30 µM was 11%. `CNC(=O)N1C2Cc3cc4c(cc3C1Cc1cc3c(cc12)OCO3)OCO4` [Example 44, 5,6,12,13-tetrahydro-15-(N-methylcarbamoyl)cycloocta[1,2-f:5,6-f']bis[1,3]benzodioxol-5,12-imine] showed an inhibition at 30 µM of 90%. For `O=C(O)CC(=O)N1C2Cc3cc4c(cc3C1Cc1cc3c(cc12)OCO3)OCO4` [Example 45, 15-(carboxyacetyl)-5,6,12,13-tetrahydrocycloocta[1,2-f:5,6-f']bis[1,3]benzodioxol-5,12-imine], the inhibition at 30 µM was 15%. With `O=C(O)C(=O)N1C2Cc3cc4c(cc3C1Cc1cc3c(cc12)OCO3)OCO4` [Example 46, 5,6,12,13-tetrahydro-15-oxalocycloocta[1,2-f:5,6-f']bis[1,3]benzodioxol-5,12-imine] the inhibition at 30 µM was 6%. For `O=C(CCO)N1C2Cc3cc4c(cc3C1Cc1cc3c(cc12)OCO3)OCO4` [Example 47, 5,6,12,13-tetrahydro-15-(3-hydroxypropionyl)cycloocta[1,2-f:5,6-f']bis[1,3]benzodioxol-5,12-imine], the inhibition at 30 µM was 83%. In the case of `O=C(CO)N1C2Cc3cc4c(cc3C1Cc1cc3c(cc12)OCO3)OCO4` [Example 48, 15-glycoloyl-5,6,12,13-tetrahydrocycloocta[1,2-f:5,6-f']bis-[1,3]benzodioxol-5,12-imine], the inhibition at 30 µM was 85%. `NCCN1C2Cc3cc4c(cc3C1Cc1cc3c(cc12)OCO3)OCO4` [Example 50, 15-(2-aminoethyl)-5,6,12,13-tetrahydrocycloocta[1,2-f:5,6-f']bis[1,3]benzodioxol-5,12-imine] gave an inhibition at 30 µM of 64%. `NCCCCN1C2Cc3cc4c(cc3C1Cc1cc3c(cc12)OCO3)OCO4` [Example 51, 15-(4-aminobutyl)-5,6,12,13-tetrahydrocycloocta[1,2-f:5,6-f']bis[1,3]benzodioxol-5,12-imine] showed an inhibition at 30 µM of -44%. `NCC(=O)N1C2Cc3cc4c(cc3C1Cc1cc3c(cc12)OCO3)OCO4` [Example 52, 15-glycyl-5,6,12,13-tetrahydrocycloocta[1,2-f:5,6-f']bis[1,3]benzodioxol-5,12-imine] showed an inhibition at 30 µM of 20%. `NCCC(=O)N1C2Cc3cc4c(cc3C1Cc1cc3c(cc12)OCO3)OCO4` [Example 53, 15-(3-aminopropionyl)-5,6,12,13-tetrahydrocycloocta[1,2-f:5,6-f']bis[1,3]benzodioxol-5,12-imine] gave an inhibition at 30 µM of -1%.

Source: patent US5648359A, “Tumor necrosis factor production inhibitors” (Sumitomo Pharmaceuticals Company, Limited, priority 1993, dated 1997)
